Source: patent publication US20090011447A1, “QUANTIFICATION OF VITELLOGENIN” (priority 2006, published 2009)
Several values for one entry are separate records, joined by “and”; a condition that tells them apart may be missing. Identical values can stand only once.

Tests used:
Format in all cases: in vivo
Vtg = Vtg induction with β-estradiol in Atlantic cod, assessed by SDS-PAGE; conditions: experimental Atlantic cod serum, Coomassie blue stained gel, vs control fish
Description: Twelve mature female Atlantic cod fish were kept in a 60 gallon tank with a running sea water supply and fed, ad libitum. A 12 hour light-darkness cycle was maintained during the experiment. After one month of acclimatization, experimental fish were injected intraperitoneally four times, at one week intervals, a dose of 10 mg of β-estradiol per kilogram of fish body weight using a 10 mg/ml solution in oil:acetone (9:1). Control fish were injected only with the oil:acetone solution. One week after the last injection, fish were anesthetized using tricaine methanesulfonate (TMS) and bled. Blood samples were collected from the caudal vein using heparinized syringes and transferred in 1 mL portions into plastic tubes kept in ice. Twenty microliters of a 4 TIU aprotinin solution were added to each sample, homogenized and centrifuged at 3000 rpm for 5 minutes at 0° C. Plasma was separated and kept frozen at -80° C. until further analysis. Separation of Vtg by SDS-PAGE and subsequent “in-gel” digestion was performed following the procedure described in detail by […] et al. with minor modifications^65. Five microliters of thawed plasma from both experimental and control fish were mixed and loaded onto a 6% acrylamide gel and run for one hour at 180 V. The gel was stained using the colloidal Coomassie blue protocol. […]

plasma Vtg [1] = assay: Vtg induction with β-estradiol in Rainbow trout, plasma signature peptide quantified by HPLC-QqToF-MS/MS; conditions: experimental (E) Rainbow trout, individual fish
Description: (§1) Thirteen juvenile Rainbow trout and ten mature Atlantic salmon were kept in two 60 gallon tanks with running fresh and sea water, respectively. A 12 hour light-darkness cycle was maintained during the experiment. After one month of acclimatization, experimental fish were injected intraperitoneally four times, at one week intervals, with a dose of 10 mg of β-estradiol per kilogram of body weight using a 10 mg/mL solution in oil:acetone (9:1). Control fish were injected with the oil:acetone solution only.
(§2) One week before the first injection and one week after the last injection, fish were anesthetized using tricaine methanesulfonate (TMS) and blood samples were collected from the caudal vein using heparinized syringes and transferred in 1 mL portions into plastic tubes kept in ice. Samples were centrifuged at 3000 rpm for 5 minutes at 0° C. Plasma was separated and kept frozen at −80° C. until further analysis.
(§3) Five μL of plasma were mixed with 100 μL of denaturing buffer (8M urea, 4 mM dithiothreitol) and heated at 65° C. Then, 300 μL of a 50 mM solution of NH4HCO3 were added, followed by 95 μL of a 20 μg/mL trypsin solution. Digestion was carried out at 38° C. for 24 hours. Aliquots of 100 μL of the digested samples were mixed with 380 μL of solvent B (H2O: acetonitrile: acetic acid 70:30:0.1) and spiked with 20 μL of 5 μg/mL labeled standard solution. Finally, the samples were passed through 0.45 μm filters (Millipore Billerica Mass., USA, Cat. No. SJHV004NS) prior to injection into the HPLC.
(§4) In the case of Rainbow trout and salmon, samples and standards were analyzed with a HPLC system (HP 1050 from Hewlett-Packard, Palo Alto Calif., USA) coupled on-line to a QqToF (QStar XL, Applied Biosystems, Foster City Calif., USA) tandem mass spectrometer equipped with an ESI ion source (TurbolonSpray). […]
(§5) For quantification purposes, the extracted ion chromatograms of these diagnostic product ions were generated using a 2 Da mass range window around the selected product ions and manually integrated. […]

plasma Vtg [2] = assay: Vtg induction with β-estradiol in Atlantic salmon, plasma signature peptide quantified by HPLC-QqToF-MS/MS; conditions: experimental (E) Atlantic salmon, individual fish
Description: as §1, §2, §3, §4, §5

[3] = converted from SP assuming 1:1 molar ratio
[4] = one week after last of four weekly i.p. injections of 10 mg/kg, 10 mg/kg

## C[C@]12CC[C@@H]3c4ccc(O)cc4CC[C@H]3[C@@H]1CC[C@@H]2O [β-estradiol]
Vtg
  Vtg induction (SDS-PAGE band): strong induced band
Plasma Vtg [1]
  Vtg Conc, After β-estradiol: 0.351 µM and 0.487 µM and 0.343 µM and 0.278 µM and 0.375 µM and 0.471 µM and 0.120 µM and 0.225 µM and 0.113 µM and 0.344 µM and 0.460 µM
Plasma Vtg [1]; [3]
  Vtg Conc, After β-estradiol: 6.389 µg/mL and 8.867 µg/mL and 6.239 µg/mL and 5.059 µg/mL and 6.830 µg/mL and 8.562 µg/mL and 2.182 µg/mL and 4.091 µg/mL and 2.057 µg/mL and 6.264 µg/mL and 8.370 µg/mL
Plasma Vtg [1]; [4]
  SP Conc, After β-estradiol: 0.576 µg/mL and 0.799 µg/mL and 0.562 µg/mL and 0.456 µg/mL and 0.615 µg/mL and 0.771 µg/mL and 0.197 µg/mL and 0.368 µg/mL and 0.185 µg/mL and 0.564 µg/mL and 0.754 µg/mL
Plasma Vtg [2]
  Vtg Conc, After β-estradiol: 0.383 µM and 0.591 µM and 0.268 µM and 0.399 µM and 0.330 µM
Plasma Vtg [2]; [3]
  Vtg Conc, After β-estradiol: 6.967 µg/mL and 10.758 µg/mL and 4.876 µg/mL and 7.254 µg/mL and 5.997 µg/mL
Plasma Vtg [2]; [4]
  SP Conc, After β-estradiol: 0.628 µg/mL and 0.969 µg/mL and 0.439 µg/mL and 0.653 µg/mL and 0.540 µg/mL
